Test results from patent publication US7473669B2, “Substituted 4,5-dihydro-1,2,4-triazin-6-ones, 1,2,4-triazin-6-ones, and their use as fungicides” (priority 2005, dated 2009).

How the values were obtained:
[1] = tested on: Colletotricum lagenarium; assay: Cucumber Anthracnose greenhouse one-day protectant test; type: in vivo; conditions: Cucumis sativus, 24 h, cucumber plants, one-day protectant test, 200 ppm application rate; read-out: COLLLA percent control rating
[2] = tested on: Pyricularia oryzae; assay: whole plant or invertebrate; type: in vivo; conditions: 24 h, read-out: PYRIOR percent control rating
[3] = tested on: Leptosphaeria nodorum; assay: Glume Blotch of Wheat greenhouse one-day protectant test; type: in vivo; conditions: Parastagonospora nodorum, 24 h; wheat plants, one-day protectant test, 200 ppm application rate; read-out: LEPTNO percent control rating
[4] = tested on: Puccinia recondita tritici; assay: Leaf Rust of Wheat greenhouse one-day protectant test; type: in vivo; conditions: 24 h, wheat plants, one-day protectant test, 200 ppm application rate, read-out: PUCCRT percent control rating
[5] = tested on: Phytophthora infestans; assay: whole plant or invertebrate; type: in vivo; conditions: in Solanum lycopersicum, 24 h, read-out: PHYTIN percent control rating, tomato plants, one-day protectant test, 200 ppm application rate
[6] = tested on: Erysiphe cichoracaerum; assay: Cucumber Powdery Mildew greenhouse one-day protectant test; type: in vivo; conditions: 24 h, cucumber plants, one-day protectant test, 200 ppm application rate, read-out: ERYSCI percent control rating

Row | Compound | pest or weed control at 200 ppm [1] | pest or weed control at 200 ppm [2] | melting point | pest or weed control at 200 ppm [3] | pest or weed control at 200 ppm [4] | pest or weed control at 200 ppm [5] | pest or weed control at 200 ppm [6]
1 | O=C1C(SC2CCCCC2)NC(c2cccc(I)c2)=NN1CC(F)(F)F (centres unmarked) [Compound 49, 5-cyclohexylthio-3-(3-iodophenyl)-1-(2,2,2-trifluoroethyl)-4,5-1,2,4-dihydrotriazin-6(1H)-one] | 80 to 100% | 80 to 100% | 172 to 173 °C | 80 to 100% | 80 to 100% | 0 to 49% | 0 to 49%
2 | O=C1CNC(c2cc(-c3ccsc3)cc(-c3ccsc3)c2)=NN1CC(F)(F)F [Compound 61, 3-(3,5-dithien-3-ylphenyl)-1-(2,2,2-trifluoroethyl)-4,5-dihydro-1,2,4-triazin-6(1H)-one] | 0 to 49% | 80 to 100% | 180 to 182 °C | 0 to 49% | 80 to 100% | 0 to 49% | 0 to 49%
3 | O=C1CNC(c2cc(Br)cc(-c3ccsc3)c2)=NN1CC(F)(F)F [Compound 67, 3-(3-Bromo-5-thien-3-ylphenyl)-1-(2,2,2-trifluoroethyl)-4,5-dihydro-1,2,4-triazin-6(1H)-one] | 80 to 100% | 80 to 100% | 167 to 169 °C | 80 to 100% | 80 to 100% | 0 to 49% | 0 to 49%
4 | O=C1CNC(c2cccc(Cc3ccccc3)c2)=NN1CC(F)(F)F [Compound 73, 3-(3-benzylphenyl)-1-(2,2,2-trifluoroethyl)-4,5-dihydro-1,2,4-triazin-6(1H)-one] | 0 to 49% | 80 to 100% | 104 to 106 °C | 80 to 100% | 80 to 100% | 0 to 49% | 0 to 49%
5 | CON=C(c1ccccc1)c1cccc(C2=NN(CC(F)(F)F)C(=O)CN2)c1 [Compound 75, 3-{3-[(Z)-(Methoxyimino)phenyl)methyl]phenyl}-1-(2,2,2-trifluoroethyl)-4,5-dihydro-1,2,4-triazin-6(1H)-one] | 0 to 49% | 80 to 100% | 119 to 123 °C | 80 to 100% | 80 to 100% | 0 to 49% | 0 to 49%
6 | O=c1cnc(-c2cc(-c3ccsc3)cc(-c3ccsc3)c2)nn1CC(F)(F)F [Compound 80, 3-(3,5-dithien-3-ylphenyl)-1-(2,2,2-trifluoroethyl)-1,2,4-triazin-6(1H)-one] | 0 to 49% | 80 to 100% | 189 to 191 °C | 0 to 49% | 50 to 79% | 0 to 49% | 0 to 49%
7 | O=c1cnc(-c2cc(Br)cc(-c3ccsc3)c2)nn1CC(F)(F)F [Compound 84, 3-(3-Bromo-5-thien-3-ylphenyl)-1-(2,2,2-trifluoroethyl)-1,2,4-triazin-6(1H)-one] | 50 to 79% | 80 to 100% | 180 to 182 °C | 80 to 100% | 0 to 49% | 0 to 49% | 0 to 49%
8 | O=c1cnc(-c2cccc(CC3=CCc4ccccc43)c2)nn1CC(F)(F)F [Compound 90] | 0 to 49% | 80 to 100% |  | 50 to 79% | 50 to 79% | 0 to 49% | 0 to 49%
9 | O=c1cnc(-c2cccc(Cc3ccccc3)c2)nn1CC(F)(F)F [Compound 91, 3-(3-Benzylphenyl)-1-(2,2,2-trifluoroethyl)-1,2,4-triazin-6(1H)-one] | 80 to 100% | 80 to 100% | 95 to 96 °C | 80 to 100% | 80 to 100% | 0 to 49% | 80 to 100%
10 | O=c1cnc(-c2cccc(C#Cc3ccccc3)c2)nn1CC(F)(F)F [Compound 92] | 80 to 100% | 80 to 100% |  | 50 to 79% | 80 to 100% | 50 to 79% | 0 to 49%
11 | CON=C(c1ccccc1)c1cccc(-c2ncc(=O)n(CC(F)(F)F)n2)c1 [Compound 94, 3-{3-[(Z)-(Methoxyimino)phenyl)methyl]phenyl}-1-(2,2,2-trifluoroethyl)-1,2,4-triazin-6(1H)-one] | 0 to 49% | 80 to 100% | 127 to 129 °C | 80 to 100% | 80 to 100% | 0 to 49% | 0 to 49%
12 | O=c1cnc(-c2cccc(C(=NOCc3ccccc3)c3ccccc3)c2)nn1CC(F)(F)F [Compound 95] | 0 to 49% | 80 to 100% | 139 to 140 °C | 50 to 79% | 0 to 49% | 0 to 49% | 0 to 49%
13 | C[Si](C)(C)C#CCn1nc(-c2ccc(F)c(Br)c2)ncc1=O [Compound 96, 3-(3-bromo-4-fluorophenyl)-1-(3-trimethylsilanyl-prop-2-ynyl)-1,2,4-triazin-6(1H)-one] | 50 to 79% | 80 to 100% | 103 to 105 °C | 0 to 49% | 50 to 79% | 0 to 49% | 0 to 49%
14 | O=c1cnc(-c2ccc(F)c(Br)c2)nn1Cc1ccc(Cl)nc1 [Compound 97, (3-bromo-4-fluoro-phenyl)-1-(6-chloro-pyridin-3-ylmethyl)-1H-[1,2,4]triazin-6-one] | 50 to 79% | 80 to 100% |  | 80 to 100% | 80 to 100% | 0 to 49% | 0 to 49%
